Tests used:
[1] = system: rip-1; experiment: rip-1 cytoplasmic to nuclear translocation (cellular fractionation, vpr-ligand blot); type: cell-based; conditions: for nuclear translocation of rip-1: exposure of cells to agent, steroids at 10^−6M
Experimental: 3×10^6 cells were washed twice in PBS, and lysed in 200 μl of lysis buffer (150 mM NaCl, 50 mM Tris, pH 8.0, 0.5% Triton X-100, plus protease inhibitors: aprotinin, leupeptin, pepstatin A, each at 2 μg/ml; PMSF, 1 mM, and EDTA, 1 mM). Cell suspension was incubated on ice for 10 minutes with frequent vortexing, and centrifuged at 12000 g for 6 minutes. The soluble, as well as the insoluble fractions were run on 12% SDS-PAGE, and transferred to PVDF membranes (Millipore), as described. Membranes were blocked with 5% non fat dry milk, in TBS supplemented with 0.05% Tween-20. Blocked membranes were incubated with either purified vpr protein (approximately 50 ng/ml) or an irrelevant protein. These membranes were then incubated with 808 rabbit anti vpr antiserum Levy, et al. 1994b, supra, followed by I^125 protein G (NEN), and exposed to film for at least 12 hours at −80° C.

[2] = system: HIV-1 NL43 Δvpr; experiment: Complementation in trans of HIV-1 NL43 Δvpr in nonproductively infected U937 cells (virus production); type: cell-based; conditions: for complementation in trans of HIV-1 NL43 Δvpr virus: agent added to tissue culture medium of nonproductively infected U937 cells
Experimental: (§1) The following cell lines were obtained from the American Type Culture Collection; TE671 human embryonal rhabdomyosarcoma (ATCC HTB139), A673 embryonal rhabdomyosarcoma (ATCC CRL 1598), D17 canine osteosarcoma (ATCC CCL183), HOS human osteosarcoma (ATCC CRL 1543), U373 human glioblastoma (ATCC HTB17), SK-N-MC neuroblastoma (ATCC HTB10). Two additional glioblastoma lines were kindly provided by the Medical Research Council (MRC), England, (HT17 and HT16). U87MG (HTB14) is a glial cell line obtained from the University of Pennsylvania Cell Center. RD rhabdomyosarcoma cells were provided by Dr. A. Srinivasan. The T lymphocytic cells H9 and SupT-I were obtained from the University of Pennsylvania Cell Center, and KG-1 was obtained from Dr. G. Trinchieri. The murine NIH 3T3 line was obtained from ATCC. BSC-1, CV-1 and COS cell lines were obtained Dr. B. Moss. Primary PBL as well as primary monocytes/macrophages were isolated as in Levy, et al. 1994b, supra. All non-hematopoietic cells were cultured in DMEM with 10% heat inactivated fetal calf serum, penicillin/streptomycin, I-glutamine, Hepes (25 mM) and sodium pyruvate. Hematopoietic cells were cultured in RPMl 1640 as above except using 10% autologous human serum. Virus were prepared as described in Levy, et al., 1994b, supra; Levy, et al., 1994a, supra, which are incorporated herein by reference.
The rabbit anti-vpr peptide serum (aa 2-21, “808”) was obtained from Bryan Cullen through the NIH ARRRP. The human anti-gag p24 (V7.8) was obtained from Ronald Kennedy through the NIH ARRRP. The sheep anti-p24 was obtained from the FDA through the NIH ARRRP. […]
Such nonproductively infected cells can be rescued for p24 production by addition of exogenous vpr protein (Levy, et al., 1994a, supra; Levy, et al., 1994b, supra). […] When the nonproductively infected U937 cells described above were exposed to vpr protein, rip-1 translocated 12 hours later, and virus was first detected in the media 36 hours after the initial exposure to vpr. […]

[3] = system: HIV-1 NL43; experiment: Virus production by HIV-1 NL43 infected U937 cells; type: cell-based
Experimental: as §1, with “reference. […]” for “reference.”

[4] = system: HIV LTR; experiment: LTR-CAT assay in RD cells transfected with pBennCAT; type: cell-based, HIV-1; conditions: for increase in CAT activity over the controls: agent added to medium of LTR-CAT transfected RD cells, harvested 48 hours later
Experimental: Induction of the HIV-LTR was measured as a function of a reporter gene (CAT) function. pBennCAT, an LTR-CAT encoding construct, obtained from M. Martin, through the NIH ARRRP was used. The levels of CAT protein were measured using a CAT ELISA capture assay (Boehringer Mannheim), following manufacturer's specifications. The levels of CAT activity were measured by a chloramphenicol acetyltransferase assay, according to published procedures (Gorman, et al., 1982, The Rous sarcoma virus long terminal repeat is a strong promoter when introduced into a variety of eukaryotic cells by DNA mediated transfection. Proc. Natl. Acad. Sci. USA. 79, 6777-6781). Briefly, RD cells were transfected with pBennCAT (Gendelman, 1986, Trans-activation of the Human immunodeficiency virus long terminal repeat sequence by DNA viruses. Proc. Natl. Acad. Sci. USA. 83, 9759-9763), using DOTAP. Cells were washed 12 hours later and new medium, containing the test reagents was added to the cell monolayers. 48 hours later, cells were washed three times with Ca+2/Mg+2 free PBS. Cells were then scraped off the plate, and collected with 1 ml PBS. Cell pellets were lysed by resuspending them in 100 μl 0.25M Tris, pH 7.8, and undergoing three freeze-thaw cycles using an ethanol-dry ice bath, and a 37° C. water bath. Lysates were spun at 12,000 G for 5 minutes and samples were stored at −20° C. until they were used. The CAT reaction was set up using 5 μl C^14 chloramphenicol (40-50 mCi/mmole), 70 μl ddH2O, 35 μl 1M Tris, pH 7.8, 20 μl 4 mM acetyl Coa (Pharmacia), 20 μl cell lysate. The reactions were incubated at 37° C. for an hour, and subsequently extracted with 1 ml ethyl acetate. After resuspension in 20 μl ethyl acetate, samples were spotted on the silica gel TLC plates (Whatman), and developed in chloroform:methanol (95:5); ascending. Gels were dried and exposed to film (Kodak XAR) overnight at room temperature. The panel of HIV-1 LTR/CAT mutants were obtained from Dr. Joseph Stevens, through the NIH ARRRP. pGRE5/CAT was obtained from United States Biochemicals.
The possibility that activation of the GR pathway could play a central role in the viral transcription process was considered. To test this, RD cells were transfected with an LTR-CAT encoding plasmid (pBennCAT) (Gendelman, 1986, supra), without selection. 12 hours later, the cell monolayers were washed and fresh medium containing the test reagents was added to the cultures, and 48 hours later the cells were harvested. In these studies, the co-transfection of a vpr encoding plasmid with the LTR-CAT encoding plasmid produced an increase in CAT activity of 5-10 fold over the controls, as has been previously reported. […] Vpr protein was detected in the tissue culture media of these cells, as assessed by capture ELISA.

With cyclodextrin the “nuclear translocation of rip-1” value [1] was “failed to induce the nuclear translocation of rip-1” and the “complementation in trans of HIV-1 NL43 Δvpr virus” value [2] was “not affected”.
CCCCCCCCCCCCCC(=O)O[C@@H]1[C@@H](C)[C@@]2(O)[C@@H](C=C(CO)C[C@]3(O)C(=O)C(C)=C[C@@H]23)[C@@H]2C(C)(C)[C@]12OC(C)=O [PMA] was tested, and the “nuclear translocation of rip-1” value [1] was “not”.
In the case of CC#C[C@]1(O)CC[C@H]2[C@@H]3CCC4=CC(=O)CCC4=C3[C@@H](c3ccc(N(C)C)cc3)C[C@@]21C [mifepristone], the “effect on vpr induced translocation of rip-1” value ([1]; mifepristone 10^−6M) is reported as “inhibited”, the “effect on rip-1 nuclear translocation induced by Dexamethasone and Hydrocortisone” value ([1]; mifepristone added to culture medium, 10^−6M) is reported as “blocked” and the “effect on transcomplementation of HIV-1 NL43 Δvpr infected U937 cells by vpr protein” value ([2]; mifepristone treatment) is reported as “abolished”. For the same compound, the “levels of virus produced, lower than the untreated cultures” value ([3]; HIV-1 infected cells exposed to mifepristone, 10^−6M) was “about 70%”, the “inhibition of the enhancement in virus production by addition of vpr protein” value ([3]; infected cells plus vpr protein, mifepristone 10^−6M) was 80-90 % inhibition and the “effect on increase in CAT activity stimulated by vpr protein or steroids” value ([4]; cultures supplemented with mifepristone) was “inhibited”. For the same compound, the “effect on increase in CAT activity in cells cotransfected with vpr encoding plasmid and LTR-CAT plasmid” value ([4]; mifepristone) was “blocked”.
C[C@@H]1C[C@H]2[C@@H]3CCC4=CC(=O)C=C[C@]4(C)[C@@]3(F)[C@@H](O)C[C@]2(C)[C@@]1(O)C(=O)CO [Dexamethasone] was tested, and the “increase in CAT activity over the controls” value [4] was “ca. 50 fold”.
For C[C@]12CCC(=O)C=C1CC[C@@H]1[C@@H]2[C@@H](O)C[C@@]2(C)[C@H]1CC[C@]2(O)C(=O)CO [Hydrocortisone], the “nuclear translocation of rip-1” value [1] was “induced the nuclear translocation of rip-1”, the “complementation in trans of HIV-1 NL43 Δvpr virus” value [2] was “complemented in trans” and the “increase in CAT activity over the controls” value [4] was “ca. 50 fold”.

Reference: patent US6667157B1, “Compositions and methods for the abrogation of cellular proliferation utilizing the human immunodeficiency virus VPR protein” (priority 1994, dated 2003)
